According to the supplement of paper PMC10307832:

Columns and labels:
Assay in all cases: relative viability (nuclei count vs DMSO), 5 days (fraction); higher = more cells survive
ABC-1 = test system: ABC-1
In short: (§1)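 Lung cancer cell lines were pin-tool dosed in 1536-well plates on the day after seeding, with either a lone drug or a fixed anchor-drug dose plus five library-drug doses (not always all listed) in √10 steps. Nuclei were counted on 4× images after 5 days. Relative viability is the ratio of treated-well to vehicle-well nuclei counts, with each value a median of duplicate plates.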

NCI-H520 = test system: NCI-H520
In short: as §1

NCI-H2405 = test system: NCI-H2405
In short: as §1

NCI-H1650 = test system: NCI-H1650
In short: as §1

LK-2 = test system: LK-2
In short: as §1

RERF-LC-KJ = test system: RERF-LC-KJ
In short: as §1

H3255 = test system: H3255
In short: as §1

HCC-15 = test system: HCC-15
In short: as §1

HCC-827 = test system: HCC-827
In short: as §1

NCI-H661 = test system: NCI-H661
In short: as §1

NCI-H322M = test system: NCI-H322M
In short: as §1

PC-14 = test system: PC-14
In short: as §1

NCI-H1437 = test system: NCI-H1437
In short: as §1

NCI-H2342 = test system: NCI-H2342
In short: as §1

COR-L23 = test system: COR-L23
In short: as §1

SW 1573 = test system: SW 1573
In short: as §1

EKVX = test system: EKVX
In short: as §1

NCI-H1355 = test system: NCI-H1355
In short: as §1

PC-3 [JPC-3] = test system: PC-3 [JPC-3]
In short: as §1

NCI-H1734 = test system: NCI-H1734
In short: as §1

## CC1(C)CCC(c2ccc(Cl)cc2)=C(CN2CCN(c3ccc(C(=O)NS(=O)(=O)c4ccc(N[C@H](CCN5CCOCC5)CSc5ccccc5)c(S(=O)(=O)C(F)(F)F)c4)cc3)CC2)C1 [Navitoclax] + Nc1ncn([C@H]2C[C@H](O)[C@@H](CO)O2)c(=O)n1 [Decitabine] (partner 2 µM)
ABC-1; first compound 0.005 µM
  relative viability: 0.889
ABC-1; first compound 0.01581 µM
  relative viability: 1.21
ABC-1; first compound 0.05 µM
  relative viability: 1.02
ABC-1; first compound 0.1581 µM
  relative viability: 0.986
ABC-1; first compound 0.5 µM
  relative viability: 1
NCI-H520; first compound 0.005 µM
  relative viability: 0.432
NCI-H520; first compound 0.01581 µM
  relative viability: 0.48
NCI-H520; first compound 0.05 µM
  relative viability: 0.423
NCI-H520; first compound 0.1581 µM
  relative viability: 0.487
NCI-H520; first compound 0.5 µM
  relative viability: 0.489
NCI-H2405; first compound 0.005 µM
  relative viability: 0.75
NCI-H2405; first compound 0.01581 µM
  relative viability: 0.812
NCI-H2405; first compound 0.05 µM
  relative viability: 0.885
NCI-H2405; first compound 0.1581 µM
  relative viability: 0.717
NCI-H2405; first compound 0.5 µM
  relative viability: 0.771
NCI-H1650; first compound 0.005 µM
  relative viability: 0.43
NCI-H1650; first compound 0.01581 µM
  relative viability: 0.424
NCI-H1650; first compound 0.05 µM
  relative viability: 0.399
NCI-H1650; first compound 0.1581 µM
  relative viability: 0.364
NCI-H1650; first compound 0.5 µM
  relative viability: 0.334
LK-2; first compound 0.005 µM
  relative viability: 0.295
LK-2; first compound 0.01581 µM
  relative viability: 0.279
LK-2; first compound 0.05 µM
  relative viability: 0.235
LK-2; first compound 0.1581 µM
  relative viability: 0.267
LK-2; first compound 0.5 µM
  relative viability: 0.4
RERF-LC-KJ; first compound 0.005 µM
  relative viability: 0.834
RERF-LC-KJ; first compound 0.01581 µM
  relative viability: 0.55
RERF-LC-KJ; first compound 0.05 µM
  relative viability: 0.669
RERF-LC-KJ; first compound 0.1581 µM
  relative viability: 0.733
RERF-LC-KJ; first compound 0.5 µM
  relative viability: 0.708
H3255; first compound 0.005 µM
  relative viability: 0.503
H3255; first compound 0.01581 µM
  relative viability: 0.668
H3255; first compound 0.05 µM
  relative viability: 0.567
H3255; first compound 0.1581 µM
  relative viability: 0.596
H3255; first compound 0.5 µM
  relative viability: 0.519
HCC-15; first compound 0.005 µM
  relative viability: 0.64
HCC-15; first compound 0.01581 µM
  relative viability: 0.652
HCC-15; first compound 0.05 µM
  relative viability: 0.386
HCC-15; first compound 0.1581 µM
  relative viability: 0.625
HCC-15; first compound 0.5 µM
  relative viability: 0.411
HCC-827; first compound 0.005 µM
  relative viability: 0.364
HCC-827; first compound 0.01581 µM
  relative viability: 0.325
HCC-827; first compound 0.05 µM
  relative viability: 0.314
HCC-827; first compound 0.1581 µM
  relative viability: 0.327
HCC-827; first compound 0.5 µM
  relative viability: 0.31
NCI-H661; first compound 0.005 µM
  relative viability: 0.556
NCI-H661; first compound 0.01581 µM
  relative viability: 0.595
NCI-H661; first compound 0.05 µM
  relative viability: 0.545
NCI-H661; first compound 0.1581 µM
  relative viability: 0.547
NCI-H661; first compound 0.5 µM
  relative viability: 0.567
NCI-H322M; first compound 0.005 µM
  relative viability: 0.722
NCI-H322M; first compound 0.01581 µM
  relative viability: 0.863
NCI-H322M; first compound 0.05 µM
  relative viability: 0.703
NCI-H322M; first compound 0.1581 µM
  relative viability: 0.655
NCI-H322M; first compound 0.5 µM
  relative viability: 0.725
PC-14; first compound 0.005 µM
  relative viability: 0.237
PC-14; first compound 0.01581 µM
  relative viability: 0.2
PC-14; first compound 0.05 µM
  relative viability: 0.228
PC-14; first compound 0.1581 µM
  relative viability: 0.211
PC-14; first compound 0.5 µM
  relative viability: 0.19
NCI-H1437; first compound 0.005 µM
  relative viability: 0.549
NCI-H1437; first compound 0.01581 µM
  relative viability: 0.547
NCI-H1437; first compound 0.05 µM
  relative viability: 0.619
NCI-H1437; first compound 0.1581 µM
  relative viability: 0.519
NCI-H1437; first compound 0.5 µM
  relative viability: 0.581
NCI-H2342; first compound 0.005 µM
  relative viability: 0.799
NCI-H2342; first compound 0.01581 µM
  relative viability: 0.764
NCI-H2342; first compound 0.05 µM
  relative viability: 0.653
NCI-H2342; first compound 0.1581 µM
  relative viability: 0.679
NCI-H2342; first compound 0.5 µM
  relative viability: 0.713
COR-L23; first compound 0.005 µM
  relative viability: 0.428
COR-L23; first compound 0.01581 µM
  relative viability: 0.425
COR-L23; first compound 0.05 µM
  relative viability: 0.432
COR-L23; first compound 0.1581 µM
  relative viability: 0.428
COR-L23; first compound 0.5 µM
  relative viability: 0.437
SW 1573; first compound 0.005 µM
  relative viability: 0.498
SW 1573; first compound 0.01581 µM
  relative viability: 0.683
SW 1573; first compound 0.05 µM
  relative viability: 0.387
SW 1573; first compound 0.1581 µM
  relative viability: 0.386
SW 1573; first compound 0.5 µM
  relative viability: 0.364
EKVX; first compound 0.005 µM
  relative viability: 0.372
EKVX; first compound 0.01581 µM
  relative viability: 0.428
EKVX; first compound 0.05 µM
  relative viability: 0.361
EKVX; first compound 0.1581 µM
  relative viability: 0.285
EKVX; first compound 0.5 µM
  relative viability: 0.343
NCI-H1355; first compound 0.005 µM
  relative viability: 0.338
NCI-H1355; first compound 0.01581 µM
  relative viability: 0.372
NCI-H1355; first compound 0.05 µM
  relative viability: 0.369
NCI-H1355; first compound 0.1581 µM
  relative viability: 0.355
NCI-H1355; first compound 0.5 µM
  relative viability: 0.347
PC-3 [JPC-3]; first compound 0.005 µM
  relative viability: 0.922
PC-3 [JPC-3]; first compound 0.01581 µM
  relative viability: 0.876
PC-3 [JPC-3]; first compound 0.05 µM
  relative viability: 0.912
PC-3 [JPC-3]; first compound 0.1581 µM
  relative viability: 0.758
PC-3 [JPC-3]; first compound 0.5 µM
  relative viability: 0.653
NCI-H1734; first compound 0.005 µM
  relative viability: 0.51
NCI-H1734; first compound 0.01581 µM
  relative viability: 0.512
NCI-H1734; first compound 0.1581 µM
  relative viability: 0.5
NCI-H1734; first compound 0.5 µM
  relative viability: 0.465
